The target in one test is T1, human GLP-1 receptor (Homo sapiens, UniProt P43220).
T1 construct: host or cells: CHO cells
Nature of the test: DiscoveRx LeadHunter cellular assay, cAMP stimulation, GLP-1 receptor in CHO cells. Format: cell-based. The following applies: human GLP-1 receptor in CHO cells (DiscoveRx); read-out: EC50 cAMP GLP-1 R.

Another test deals with T2, human glucagon receptor (Homo sapiens, UniProt P47871).
T2 construct: host or cells: CHO cells
Nature of the test: DiscoveRx LeadHunter cellular assay, cAMP stimulation, glucagon receptor in CHO cells. Format: cell-based.

What is called EC50 is the concentration giving half of the maximal effect.

Numbered stars: 1 amine (or outer) side, 2 acyl side, 3 side chain; on linkers, the order of the positions; unused ones are H or OH. Bridge positions count the residues as written; N and C are the ends. Square brackets hold non-standard residues; d marks the D form. Side chains are listed from the residue outwards. Peptide text beside a SMILES is read from it. * marks the point of attachment. X1 = CCCCCCCCCCCCCCCCO[C@@H]1O[C@H](CO[C@H]2O[C@H](C(=O)*)[C@H](O)[C@H](O)[C@H]2O)[C@@H](O)[C@H](O)[C@H]1O; βGlcA(1-O-hexadecyl) = CCCCCCCCCCCCCCCCO[C@@H]1O[C@H](C(=O)*)[C@@H](O)[C@H](O)[C@H]1O; GlcA(1β-O-tetradecyl) = CCCCCCCCCCCCCCO[C@@H]1O[C@H](C(=O)*)[C@@H](O)[C@H](O)[C@H]1O; γGlu = O=C(O)[C@H](CCC(=O)[*:2])N[*:1]; εLys = N[C@@H](CCCCN[*:1])C(=O)[*:2]; Aib = CC(C)(N)C(=O)O

T2 sequence (P47871 26-477): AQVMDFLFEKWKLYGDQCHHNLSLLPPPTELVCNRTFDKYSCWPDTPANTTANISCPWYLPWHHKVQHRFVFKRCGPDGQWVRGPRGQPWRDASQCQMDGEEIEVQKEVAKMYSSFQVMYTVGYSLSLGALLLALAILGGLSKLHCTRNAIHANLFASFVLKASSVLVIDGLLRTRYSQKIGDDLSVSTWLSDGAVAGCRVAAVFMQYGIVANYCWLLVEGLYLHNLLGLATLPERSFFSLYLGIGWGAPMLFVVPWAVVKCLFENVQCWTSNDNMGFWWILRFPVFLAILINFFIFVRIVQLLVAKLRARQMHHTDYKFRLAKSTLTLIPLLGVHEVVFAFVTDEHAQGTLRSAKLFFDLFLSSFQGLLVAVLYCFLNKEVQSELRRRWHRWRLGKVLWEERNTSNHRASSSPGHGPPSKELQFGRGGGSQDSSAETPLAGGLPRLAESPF
T1 sequence (P43220 24-463): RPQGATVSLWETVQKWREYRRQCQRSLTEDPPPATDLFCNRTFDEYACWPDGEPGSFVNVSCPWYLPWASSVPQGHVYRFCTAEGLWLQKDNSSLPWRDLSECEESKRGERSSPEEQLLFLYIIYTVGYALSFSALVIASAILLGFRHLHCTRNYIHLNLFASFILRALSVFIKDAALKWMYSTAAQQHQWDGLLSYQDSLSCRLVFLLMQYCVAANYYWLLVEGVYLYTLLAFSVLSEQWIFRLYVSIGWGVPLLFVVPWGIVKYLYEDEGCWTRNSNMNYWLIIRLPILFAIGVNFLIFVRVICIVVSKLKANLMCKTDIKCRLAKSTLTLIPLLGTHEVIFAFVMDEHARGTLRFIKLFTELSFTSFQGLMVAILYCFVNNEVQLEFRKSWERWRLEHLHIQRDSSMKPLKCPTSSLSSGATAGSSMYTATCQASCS
Method for human GLP-1 receptor: (§1) A further series of cellular assays was carried out with standard cellular assays (DiscoveRx, LeadHunter assays) using readout of cAMP stimulation or arrestin activation. Compounds were weighed precisely in an amount of about 1 mg and shipped to DiscoveRx for dilution and assay.
Method for human glucagon receptor: as §1

Consider `CCCCCCCCCCCCCCCCO[C@@H]1O[C@H](CO[C@H]2O[C@H](C(=O)NCCCC[C@H](NC(=O)[C@H](C)NC(=O)[C@H](C)NC(=O)[C@H](CCC(N)=O)NC(=O)[C@@H]3CCCCNC(=O)CC[C@H](NC(=O)[C@H](CO)NC(=O)[C@H](Cc4ccc(O)cc4)NC(=O)[C@H](CC(=O)O)NC(=O)[C@H](CO)NC(=O)[C@@H](NC(=O)[C@H](Cc4ccccc4)NC(=O)[C@@H](NC(=O)CNC(=O)[C@H](CCC(N)=O)NC(=O)C(C)(C)NC(=O)[C@@H](N)Cc4c[nH]cn4)[C@@H](C)O)[C@@H](C)O)C(=O)N[C@@H](Cc4ccc(O)cc4)C(=O)N[C@@H](CC(C)C)C(=O)N[C@@H](CC(=O)O)C(=O)N3)C(=O)N[C@@H](CCC(=O)O)C(=O)N[C@@H](Cc3ccccc3)C(=O)N[C@H](C(=O)N[C@@H](CCC(N)=O)C(=O)N[C@@H](Cc3c[nH]c4ccccc34)C(=O)N[C@@H](CC(C)C)C(=O)N[C@@H](CC(C)C)C(=O)N[C@@H](CCC(N)=O)C(=O)N[C@H](C(N)=O)[C@@H](C)O)[C@@H](C)CC)[C@H](O)[C@H](O)[C@H]2O)[C@@H](O)[C@H](O)[C@H]1O` [EU-A1740] (H-H[Aib]QGTFTSDYSEYLDKQAAK(X1)EFIQWLLQT-NH2; lactam 12-16; N-terminus assumed), for which the EC50 on human GLP-1 receptor was 0.077 nM; at human glucagon receptor it was 3.82 nM.

`CCCCCCCCCCCCCCCCO[C@@H]1O[C@H](C(=O)NCCCC[C@H](NC(=O)[C@H](C)NC(=O)[C@H](C)NC(=O)[C@H](CCC(N)=O)NC(=O)[C@@H]2CCCCNC(=O)CC[C@H](NC(=O)[C@H](CO)NC(=O)[C@H](Cc3ccc(O)cc3)NC(=O)[C@H](CC(=O)O)NC(=O)[C@H](CO)NC(=O)[C@@H](NC(=O)[C@H](Cc3ccccc3)NC(=O)[C@@H](NC(=O)CNC(=O)[C@H](CCC(N)=O)NC(=O)C(C)(C)NC(=O)[C@@H](N)Cc3c[nH]cn3)[C@@H](C)O)[C@@H](C)O)C(=O)N[C@@H](Cc3ccc(O)cc3)C(=O)N[C@@H](CC(C)C)C(=O)N[C@@H](CC(=O)O)C(=O)N2)C(=O)N[C@@H](CCC(=O)O)C(=O)N[C@@H](Cc2ccccc2)C(=O)N[C@H](C(=O)N[C@@H](CCC(N)=O)C(=O)N[C@@H](Cc2c[nH]c3ccccc23)C(=O)N[C@@H](CC(C)C)C(=O)N[C@@H](CC(C)C)C(=O)N[C@@H](CCC(N)=O)C(=O)N[C@H](C(N)=O)[C@@H](C)O)[C@@H](C)CC)[C@@H](O)[C@H](O)[C@H]1O` [EU-A1745] (H-H[Aib]QGTFTSDYSEYLDKQAAK(βGlcA(1-O-hexadecyl))EFIQWLLQT-NH2; lactam 12-16; N-terminus assumed): the EC50 was 1.02 nM on human GLP-1 receptor and 10 nM at human glucagon receptor.

Turning to `CCCCCCCCCCCCCCO[C@@H]1O[C@H](C(=O)NCCCC[C@H](N)C(=O)NCCCC[C@H](NC(=O)[C@H](C)NC(=O)[C@H](C)NC(=O)[C@H](CCC(N)=O)NC(=O)[C@@H]2CCCCNC(=O)CC[C@H](NC(=O)[C@H](CO)NC(=O)[C@H](Cc3ccc(O)cc3)NC(=O)[C@H](CC(=O)O)NC(=O)[C@H](CO)NC(=O)[C@@H](NC(=O)[C@H](Cc3ccccc3)NC(=O)[C@@H](NC(=O)CNC(=O)[C@H](CCC(N)=O)NC(=O)C(C)(C)NC(=O)[C@@H](N)Cc3c[nH]cn3)[C@@H](C)O)[C@@H](C)O)C(=O)N[C@@H](Cc3ccc(O)cc3)C(=O)N[C@@H](CC(C)C)C(=O)N[C@@H](CC(=O)O)C(=O)N2)C(=O)N[C@@H](CCC(=O)O)C(=O)N[C@@H](Cc2ccccc2)C(=O)N[C@H](C(=O)N[C@@H](CCC(N)=O)C(=O)N[C@@H](Cc2c[nH]c3ccccc23)C(=O)N[C@@H](CC(C)C)C(=O)N[C@@H](CC(C)C)C(=O)N[C@@H](CCC(N)=O)C(=O)N[C@H](C(N)=O)[C@@H](C)O)[C@@H](C)CC)[C@@H](O)[C@H](O)[C@H]1O` [EU-A1784] (H-H[Aib]QGTFTSDYSEYLDKQAAK([εLys-GlcA(1β-O-tetradecyl)])EFIQWLLQT-NH2; lactam 12-16; N-terminus assumed), the figures for the EC50 at human GLP-1 receptor and on human glucagon receptor were 0.048 nM and 1.91 nM, respectively.

As for `CCCCCCCCCCCCCCCCO[C@@H]1O[C@H](C(=O)NCCCC[C@H](N)C(=O)NCCCC[C@H](NC(=O)[C@H](C)NC(=O)[C@H](C)NC(=O)[C@H](CCC(N)=O)NC(=O)[C@@H]2CCCCNC(=O)CC[C@H](NC(=O)[C@H](CO)NC(=O)[C@H](Cc3ccc(O)cc3)NC(=O)[C@H](CC(=O)O)NC(=O)[C@H](CO)NC(=O)[C@@H](NC(=O)[C@H](Cc3ccccc3)NC(=O)[C@@H](NC(=O)CNC(=O)[C@H](CCC(N)=O)NC(=O)C(C)(C)NC(=O)[C@@H](N)Cc3c[nH]cn3)[C@@H](C)O)[C@@H](C)O)C(=O)N[C@@H](Cc3ccc(O)cc3)C(=O)N[C@@H](CC(C)C)C(=O)N[C@@H](CC(=O)O)C(=O)N2)C(=O)N[C@@H](CCC(=O)O)C(=O)N[C@@H](Cc2ccccc2)C(=O)N[C@H](C(=O)N[C@@H](CCC(N)=O)C(=O)N[C@@H](Cc2c[nH]c3ccccc23)C(=O)N[C@@H](CC(C)C)C(=O)N[C@@H](CC(C)C)C(=O)N[C@@H](CCC(N)=O)C(=O)N[C@H](C(N)=O)[C@@H](C)O)[C@@H](C)CC)[C@@H](O)[C@H](O)[C@H]1O` [EU-A1785] (H-H[Aib]QGTFTSDYSEYLDKQAAK([εLys-βGlcA(1-O-hexadecyl)])EFIQWLLQT-NH2; lactam 12-16; N-terminus assumed), the EC50 is 0.239 nM at human GLP-1 receptor and 5.14 nM at human glucagon receptor.

Regarding `CCCCCCCCCCCCCCO[C@@H]1O[C@H](C(=O)N[C@@H](CCC(=O)NCCCC[C@H](NC(=O)[C@H](C)NC(=O)[C@H](C)NC(=O)[C@H](CCC(N)=O)NC(=O)[C@@H]2CCCCNC(=O)CC[C@H](NC(=O)[C@H](CO)NC(=O)[C@H](Cc3ccc(O)cc3)NC(=O)[C@H](CC(=O)O)NC(=O)[C@H](CO)NC(=O)[C@@H](NC(=O)[C@H](Cc3ccccc3)NC(=O)[C@@H](NC(=O)CNC(=O)[C@H](CCC(N)=O)NC(=O)C(C)(C)NC(=O)[C@@H](N)Cc3c[nH]cn3)[C@@H](C)O)[C@@H](C)O)C(=O)N[C@@H](Cc3ccc(O)cc3)C(=O)N[C@@H](CC(C)C)C(=O)N[C@@H](CC(=O)O)C(=O)N2)C(=O)N[C@@H](CCC(=O)O)C(=O)N[C@@H](Cc2ccccc2)C(=O)N[C@H](C(=O)N[C@@H](CCC(N)=O)C(=O)N[C@@H](Cc2c[nH]c3ccccc23)C(=O)N[C@@H](CC(C)C)C(=O)N[C@@H](CC(C)C)C(=O)N[C@@H](CCC(N)=O)C(=O)N[C@H](C(N)=O)[C@@H](C)O)[C@@H](C)CC)C(=O)O)[C@@H](O)[C@H](O)[C@H]1O` [EU-A1787] (H-H[Aib]QGTFTSDYSEYLDKQAAK([γGlu-GlcA(1β-O-tetradecyl)])EFIQWLLQT-NH2; lactam 12-16; N-terminus assumed), the EC50 was found to be 0.246 nM on human GLP-1 receptor and 10 nM on human glucagon receptor.

With `CCCCCCCCCCCCCCCCO[C@@H]1O[C@H](C(=O)N[C@@H](CCC(=O)NCCCC[C@H](NC(=O)[C@H](C)NC(=O)[C@H](C)NC(=O)[C@H](CCC(N)=O)NC(=O)[C@@H]2CCCCNC(=O)CC[C@H](NC(=O)[C@H](CO)NC(=O)[C@H](Cc3ccc(O)cc3)NC(=O)[C@H](CC(=O)O)NC(=O)[C@H](CO)NC(=O)[C@@H](NC(=O)[C@H](Cc3ccccc3)NC(=O)[C@@H](NC(=O)CNC(=O)[C@H](CCC(N)=O)NC(=O)C(C)(C)NC(=O)[C@@H](N)Cc3c[nH]cn3)[C@@H](C)O)[C@@H](C)O)C(=O)N[C@@H](Cc3ccc(O)cc3)C(=O)N[C@@H](CC(C)C)C(=O)N[C@@H](CC(=O)O)C(=O)N2)C(=O)N[C@@H](CCC(=O)O)C(=O)N[C@@H](Cc2ccccc2)C(=O)N[C@H](C(=O)N[C@@H](CCC(N)=O)C(=O)N[C@@H](Cc2c[nH]c3ccccc23)C(=O)N[C@@H](CC(C)C)C(=O)N[C@@H](CC(C)C)C(=O)N[C@@H](CCC(N)=O)C(=O)N[C@H](C(N)=O)[C@@H](C)O)[C@@H](C)CC)C(=O)O)[C@@H](O)[C@H](O)[C@H]1O` [EU-A1788] (H-H[Aib]QGTFTSDYSEYLDKQAAK([γGlu-βGlcA(1-O-hexadecyl)])EFIQWLLQT-NH2; lactam 12-16; N-terminus assumed), the EC50 at human GLP-1 receptor was determined as 0.232 nM; at human glucagon receptor it was 10 nM.

For the compound `CCCCCCCCCCCCCCO[C@@H]1O[C@H](C(=O)NCCCC[C@@H]2NC(=O)[C@@H](NC(=O)[C@H](CC(=O)O)NC(=O)[C@H](CC(C)C)NC(=O)[C@H](Cc3ccc(O)cc3)NC(=O)[C@H](CCCCN)NC(=O)[C@H](CO)NC(=O)[C@H](Cc3ccc(O)cc3)NC(=O)[C@H](CC(=O)O)NC(=O)[C@H](CO)NC(=O)[C@@H](NC(=O)[C@H](Cc3ccccc3)NC(=O)[C@@H](NC(=O)CNC(=O)[C@H](CCC(N)=O)NC(=O)C(C)(C)NC(=O)[C@@H](N)Cc3c[nH]cn3)[C@@H](C)O)[C@@H](C)O)CCC(=O)NCCCC[C@@H](C(=O)N[C@@H](CCC(=O)O)C(=O)N[C@@H](Cc3ccccc3)C(=O)N[C@H](C(=O)N[C@@H](CCC(=O)O)C(=O)N[C@@H](Cc3c[nH]c4ccccc34)C(=O)N[C@@H](CC(C)C)C(=O)N[C@@H](CC(C)C)C(=O)N[C@@H](CCC(N)=O)C(=O)N[C@H](C(N)=O)[C@@H](C)O)[C@@H](C)CC)NC(=O)[C@H](C)NC(=O)[C@H](C)NC2=O)[C@@H](O)[C@H](O)[C@H]1O` [EU-A1841] (H-H[Aib]QGTFTSDYSKYLDEK(GlcA(1β-O-tetradecyl))AAKEFIEWLLQT-NH2; lactam 16-20; N-terminus assumed), the concentration for a half-maximal effect (EC50) at human GLP-1 receptor was 0.316 nM; at human glucagon receptor, 0.475 nM.

With `CCCCCCCCCCCCCCCCO[C@@H]1O[C@H](C(=O)NCCCC[C@@H]2NC(=O)[C@@H](NC(=O)[C@H](CC(=O)O)NC(=O)[C@H](CC(C)C)NC(=O)[C@H](Cc3ccc(O)cc3)NC(=O)[C@H](CCCCN)NC(=O)[C@H](CO)NC(=O)[C@H](Cc3ccc(O)cc3)NC(=O)[C@H](CC(=O)O)NC(=O)[C@H](CO)NC(=O)[C@@H](NC(=O)[C@H](Cc3ccccc3)NC(=O)[C@@H](NC(=O)CNC(=O)[C@H](CCC(N)=O)NC(=O)C(C)(C)NC(=O)[C@@H](N)Cc3c[nH]cn3)[C@@H](C)O)[C@@H](C)O)CCC(=O)NCCCC[C@@H](C(=O)N[C@@H](CCC(=O)O)C(=O)N[C@@H](Cc3ccccc3)C(=O)N[C@H](C(=O)N[C@@H](CCC(=O)O)C(=O)N[C@@H](Cc3c[nH]c4ccccc34)C(=O)N[C@@H](CC(C)C)C(=O)N[C@@H](CC(C)C)C(=O)N[C@@H](CCC(N)=O)C(=O)N[C@H](C(N)=O)[C@@H](C)O)[C@@H](C)CC)NC(=O)[C@H](C)NC(=O)[C@H](C)NC2=O)[C@@H](O)[C@H](O)[C@H]1O` [EU-A1842] (H-H[Aib]QGTFTSDYSKYLDEK(βGlcA(1-O-hexadecyl))AAKEFIEWLLQT-NH2; lactam 16-20; N-terminus assumed), the EC50 on human GLP-1 receptor is 1.21 nM; on human glucagon receptor, 2.11 nM.

Source of the values: patent publication US11541028B2, “Peptide pharmaceuticals for treatment of NASH and other disorders” (Mederis Diabetes LLC, priority 2018, dated 2023).
